“Also recorded” adds a separate entry of the source. Like-named read-outs stand apart in the source and are kept apart here.
Assays:
[1] = tested on: T. b. rhodesiense KETRi 243 (melarsoprol, pentamidine- and diminazene diaceturate-resistant); design: method as in PMID 19736009; details: strain KETRI 243; average of at least two determinations; read-out: IC50 T.b. rhod; cited from earlier work
[2] = tested on: amastigotes of L. donovani strain MHOM-ET-67/L82; assay: In vitro anti-L. donovani activity; type: cell-based, Leishmania donovani; details: for IC50: average of at least two determinations
Protocol: (§5) The anti-T. cruzi activity was determined using intracellular amastigote forms of T. cruzi Tulahuen strain C2C4 in rat skeletal myoblasts (L6 cells) as described previously [24]. The anti-L. donovani activity was determined using the amastigotes of L. donovani strain MHOM-ET-67/L82 as described previously [24]. […] The cytotoxicity assays against rat skeletal myoblast L6-cells were performed as described previously [24].

[3] = tested on: T. b. brucei Lab 110 EATRO (pentamidine-sensitive); assay: In vitro antitrypanosomal activity, T.b. brucei Lab 110 EATRO; type: cell-based, Trypanosoma brucei brucei; details: Table S1, from IC50 of Table 1; for IC50: Trypanosoma brucei, read-out: pIC50 T.b. brucei (converted)
Protocol: The in vitro assays with the two isolates of T. brucei were conducted according to previously described procedures [14].

[4] = tested on: T. b. rhodesiense KETRi 243 (melarsoprol, pentamidine- and diminazene diaceturate-resistant); assay: In vitro antitrypanosomal activity, T.b. rhodesiense KETRI 243; type: cell-based, Trypanosoma brucei rhodesiense; details: Table S1, from IC50 of Table 1; for IC50: Trypanosoma brucei, RHODESIENSE, read-out: pIC50 T.b. rhod (converted)
Protocol: as §5

[5] = tested on: intracellular amastigote forms of T. cruzi Tulahuen strain C2C4 in rat skeletal myoblasts (L6 cells); assay: In vitro anti-T. cruzi activity; type: cell-based, Trypanosoma cruzi; details: for IC50: average of at least two determinations
Protocol: as §5

[6] = tested on: rat skeletal myoblast L6-cells; assay: Cytotoxicity against L6 cells; type: cell-based
Protocol: as §5

[7] = tested on: poly(dA-dT); assay: DNA thermal melting with poly(dA-dT); type: binding; details: 1:5 compound to DNA base pair ratio; mean of at least two determinations
Protocol: (§1) In addition to the determination of the potency of the synthesized compounds against different strains of cell lines (Table 1), thermal melting experiments of these compounds were also conducted with poly(dA-dT) and calf thymus DNA (Table S1, supplementary file). […] The weaker binding to DNA (lower ΔTm values) compared to pentamidine might be attributed to the lower lipophilicity and higher PSA properties of these compounds since they would be expected to bind less favorably in the less polar environment of the minor grove of DNA as was reported for the aza-analogues of furamidine. […] Therefore, ability of these compounds to act at other potential targets cannot be ruled out.
(§2) The DNA binding affinity of the tested compounds was determined by measuring the change in mid-point of the thermal denaturation curves for a 1:5 compound to DNA base pair ratio as described previously. Each Tm value reported in Table S1 (supplementary file) represents the mean of at least two experimental determinations.

[8] = tested on: T. b. brucei Lab 110 EATRO (pentamidine-sensitive); design: method as in PMID 19736009; details: strain Lab 110; average of at least two determinations; cited from earlier work
[9] = tested on: P. falciparum K1 (chloroquine-resistant); assay: In vitro anti-plasmodial activity, K1; type: cell-based, Plasmodium falciparum
Protocol: as §5

[10] = tested on: calf thymus DNA; assay: DNA thermal melting with calf thymus DNA; type: binding; details: 1:5 compound to DNA base pair ratio; mean of at least two determinations
Protocol: as §1, §2

[11] = tested on: P. falciparum NF54 (chloroquine-sensitive); assay: In vitro anti-plasmodial activity, NF54; type: cell-based, Plasmodium falciparum
[12] = tested on: T.b. brucei Lab 110 EATRO; assay: In vivo trypanocidal activity in mice, Lab 110 EATRO; details: for Mean Survival: 1.0, 2.5, 5, 10 mg/kg/day i.p. for 3 days (all doses)
Protocol: (§3) The compounds were administered via the intraperitoneal route at doses ranging from 1.0 mg/kg/day to 25.0 mg/kg/day for 3 days unless otherwise noted. Pentamidine was used as the reference compound. All three of the tested compounds were effective in curing mice infected with the Lab 110 EATRO or KETRI 2002 strains at several doses.
(§4) The in vivo studies were conducted according to the procedures described previously.

[13] = tested on: T.b. rhodesiense KETRI 1992; assay: In vivo trypanocidal activity in mice, KETRI 1992; details: for Mean Survival: KETRI 1992
[14] = tested on: T.b. rhodesiense KETRI 2538; assay: In vivo trypanocidal activity in mice, KETRI 2538; details: KETRI 2538; 1.0, 5, 10 mg/kg/day i.p. for 3 days (all doses)
Protocol: as §3, §4

[15] = tested on: T.b. rhodesiense KETRI 2002; assay: In vivo trypanocidal activity in mice, KETRI 2002; details: for Mean Survival: KETRI 2002
Protocol: as §3, §4

[16] = tested on: both strains of P. falciparum; assay: In vitro activity and selectivity, both strains of P. falciparum; type: cell-based, Plasmodium falciparum
Protocol: The selectivity index of these compounds for T. brucei (SIT.b) or P. falciparum (SIP.f) are defined as the ratio of the L6 cells IC50 to the T. brucei or P. falciparum IC50 values.
The in vitro assays with the two isolates of T. brucei were conducted according to previously described procedures [14]. […] The cytotoxicity assays against rat skeletal myoblast L6-cells were performed as described previously [24].

[17] = Trypanosoma cruzi, TULAHUEN, L6
[18] = Rattus norvegicus, L6, cytotoxicity, read-out: IC50 L6 Cells
[19] = Plasmodium falciparum, K1, Table S1, from IC50 of Table 1, read-out: pIC50 P. falcip K1 (converted)
[20] = Plasmodium falciparum, K1, chloroquine-resistant strain, read-out: IC50 P. falcip K1
[21] = cytotoxicity, read-out: IC50 L6 Cells
[22] = chloroquine-resistant strain, read-out: IC50 P. falcip K1
[23] = chloroquine-sensitive strain, read-out: IC50 P. falcip NF54

Row | Compound | IC50 [1] | Thermal Melting ΔTm Poly(dA-dT) [7] | IC50 [8] | Thermal Melting ΔTm CT-DNA [10] | IC50 [2] | pIC50 T.b. brucei [3] | pIC50 T.b. rhod [4] | IC50 [5] | IC50 [6, 21] | pIC50 P. falcip K1 ([9]; Table S1, from IC50 of Table 1) | IC50 [9, 22] | IC50 [11, 23] | further results
1 | N#Cc1ccc(NC(=O)CCCC(=O)Nc2ccc(C#N)cc2)cc1 [Compound 3] | 7900 nM | 0.15 C | 6500 nM | −0.2 C | – | – | – | – | – | – | – | – | IC50 ([2]; Leishmania donovani): > 100000 nM; IC50 [3]: 6500 nM; IC50 [4]: 7910 nM; IC50 [5, 17]: > 100000 nM; IC50 [6, 18]: > 100000 nM; IC50 [9, 19]: 44800 nM; IC50 [9, 20]: 44800 nM
2 | N=C(N)c1cccc(NC(=O)CCCCC(=O)Nc2cccc(C(=N)N)c2)c1 [Compound 7] | 21 nM | 13.8 C | 41 nM | – | > 100000 nM | 7.387 | 7.678 | > 100000 nM | > 100000 nM | 6.420 | 380 nM | – | –
3 | NC(=O)c1ccc(NC(=O)CCCCC(=O)Nc2ccc(C(N)=O)cc2)cc1 [Compound 8] | 1100 nM | 0.0 C | 2800 nM | – | – | – | – | – | – | – | – | – | IC50 ([2]; Leishmania donovani): > 100000 nM; IC50 [3]: 2800 nM; IC50 [4]: 1100 nM; IC50 [5, 17]: > 100000 nM; IC50 [6, 18]: > 100000 nM; IC50 [9, 20]: > 100000 nM
4 | NC(=O)c1cccc(NC(=O)CCCCC(=O)Nc2cccc(C(N)=O)c2)c1 [Compound 9] | 1970 nM | 0.0 C | – | – | – | – | – | – | – | – | – | – | IC50 ([2]; Leishmania donovani): > 100000 nM; IC50 [4]: 1970 nM; IC50 [5, 17]: > 100000 nM; IC50 [6, 18]: 46400 nM; IC50 [9, 20]: > 100000 nM
5 | N=C(N)c1ccc(NC(=O)CCCCC(=O)Nc2cccc(C(=N)N)c2)cc1 [Compound 10] | 7 nM | – | 12 nM | – | > 100000 nM | 7.921 | 8.155 | > 100000 nM | > 100000 nM | 8.398 | 4 nM | 15 nM | –
6 | N=C(N)c1ccc(NC(=O)CCCCCCC(=O)Nc2ccc(C(=N)N)cc2)cc1 [Compound 12] | 1 nM | 13.2 C | 3 nM | 7.1 C | > 100000 nM | 8.523 | 9.000 | > 100000 nM | 38400 nM | 8.222 | 6 nM | 2 nM | –
7 | N=C(N)c1ccc(NC(=O)CCCCCCCCC(=O)Nc2ccc(C(=N)N)cc2)cc1 [Compound 14] | 4 nM | 10.0 C | 2 nM | 6.6 C | 68500 nM | 8.699 | 8.398 | 76400 nM | 78600 nM | 7.921 | 12 nM | 14 nM | –
8 | N=C(N)c1ccc(OCCCCCOc2ccc(C(=N)N)cc2)cc1 [Pentamidine, pentamidine, reference compound] | 2 nM | 21.6 C | – | 11.6 C | – | – | – | – | – | – | – | – | Mean Survival [12]: >30 days; Mean Survival ([13]; 1 mg/kg/day i.p. for 3 days): 12.6 days; Mean Survival ([13]; 5 mg/kg/day i.p. for 3 days): 17.0 days; Mean Survival ([13]; 10 mg/kg/day i.p. for 3 days): 22.2 days; curing of infected mice ([13]; drug-resistant KETRI 1992, i.p., 3 days): ineffective; IC50 [3]: 2 nM; IC50 [4]: 2 nM; Mean Survival [14]: >30 days; Mean Survival ([15]; 1.0, 5, 10 mg/kg/day i.p. for 3 days (all doses)): >30 days; IC50 [9, 19]: 180 nM
9 | O=C(Cn1ccnc1[N+](=O)[O-])NCc1ccccc1 [benznidazole, reference compound] | – | – | – | – | – | – | – | – | – | – | – | – | IC50 [5, 17]: 1130 nM
10 | CCN(CC)CCCC(C)Nc1ccnc2cc(Cl)ccc12 (stereo not shown) [chloroquine, reference compound] | – | – | – | – | – | – | – | – | – | – | – | – | IC50 ([11]; Plasmodium falciparum, NF54, read-out: IC50 P. falcip NF54): 6 nM; IC50 ([9]; Plasmodium falciparum, K1, read-out: IC50 P. falcip K1): 180 nM
11 | COc1cc([C@@H]2c3cc4c(cc3[C@H](O)[C@H]3COC(=O)[C@H]23)OCO4)cc(OC)c1OC [podophyllotoxin, reference compound] | – | – | – | – | – | – | – | – | – | – | – | – | IC50 ([6]; Rattus norvegicus, L6, read-out: IC50 L6 Cells): 10 nM
12 | N,N′-bis[4-(aminoiminomethyl)phenyl] butane-1,4-dicarboxamide [Compound 2] | 2190 nM | 11.5 C | 9000 nM | 8.1 C | > 100000 nM | 5.046 | 5.660 | > 100000 nM | 28000 nM | 6.538 | 290 nM | – | –
13 | N,N′-bis[4-(aminoiminomethyl)phenyl] dodecane-1,12-dicarboxamide [Compound 15] | 7 nM | 8.5 C | 8 nM | – | 10700 nM | 8.097 | 8.155 | 80900 nM | 80200 nM | 7.824 | 15 nM | 32 nM | –
14 | N,N′-bis[4-(aminoiminomethyl)phenyl] ethane-1,2-dicarboxamide [Compound 1] | – | – | – | – | > 100000 nM | – | – | > 100000 nM | > 100000 nM | 8.523 | 3 nM | 8 nM | IC50 ([16]; range over NF54 and K1, read-out: IC50 against both strains of P. falciparum): 3 to 8 nM; selectivity index for P. falciparum (SIP.f) ([16]; ratio of the L6 cells IC50 to the P. falciparum IC50): > 33,000; activity against L. donovani ([2]; in vitro): inactive; activity against T. cruzi ([5]; in vitro): inactive
15 | N,N′-bis[4-(aminoiminomethyl)phenyl] heptane-1,7-dicarboxamide [Compound 11] | 2 nM | 10.7 C | 2 nM | 6.4 C | > 100000 nM | 8.699 | 8.699 | > 100000 nM | 43000 nM | 8.699 | 2 nM | 2 nM | Mean Survival [12]: >30 days; curing of infected mice ([12]; i.p., 3 days): the most effective; also recorded: highly effective; curing of infected mice ([15]; KETRI 2002, i.p., 3 days): the most effective; also recorded: highly effective; Mean Survival ([15]; 1.0, 2.5, 5, 10 mg/kg/day i.p. for 3 days (all doses)): >30 days
16 | N,N′-bis[4-(aminoiminomethyl)phenyl] nonane-1,9-dicarboxamide [Compound 13] | 240 nM | 7.5 C | 400 nM | 4.6 C | 67400 nM | 6.398 | 6.620 | 99500 nM | 49200 nM | 8.097 | 8 nM | 2 nM | –
